{
  "source": "ChEMBL document CHEMBL1201862",
  "about": "“PubChem BioAssay data set” (2004)",
  "assay_in_all_cases": "NCI anticancer screen, dose series, 48 h",
  "key": {"Malme-3M": {"tested_on": "Malme-3M"}, "HOP-92": {"tested_on": "HOP-92"}, "DU-145": {"tested_on": "DU-145"}, "786-0": {"tested_on": "786-0"}, "NCI/ADR-RES": {"tested_on": "NCI/ADR-RES"}, "Hs-578T": {"tested_on": "Hs-578T"}, "ACHN": {"tested_on": "ACHN"}, "KM12": {"tested_on": "KM12"}, "MOLT-4": {"tested_on": "MOLT-4"}, "SN12C": {"tested_on": "SN12C"}, "SK-MEL-2": {"tested_on": "SK-MEL-2"}, "CAKI-1": {"tested_on": "CAKI-1"}, "COLO 205": {"tested_on": "COLO 205"}, "SK-MEL-28": {"tested_on": "SK-MEL-28"}, "OVCAR-8": {"tested_on": "OVCAR-8"}, "A549": {"tested_on": "A549"}, "HCT-15": {"tested_on": "HCT-15"}, "MCF7": {"tested_on": "MCF7"}, "RXF 393": {"tested_on": "RXF 393"}, "A498": {"tested_on": "A498"}},
  "note": "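Cultured in 96-well plates, cells were exposed to test compound for 48 hours across five concentrations. GI50 = concentration required for 50% inhibition of growth.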 Active and inactive are the calls of the source. Cut-off read from the data, not from the text of the source: active = GI50 up to about 1.1 µM and inactive = higher.",
  "data": [
    {"compound": "Oc1cccc(/C=N/N=c2/[nH][nH]/c(=N/N=C/c3cccc(O)c3)c3ccccc23)c1", "values": [
      {"measurement": "GI50", "setting": "Malme-3M", "result": "15.5 µM (inactive)"},
      {"measurement": "GI50", "setting": "HOP-92", "result": "15.9 µM (inactive)"},
      {"measurement": "GI50", "setting": "DU-145", "result": "23.9 µM (inactive)"},
      {"measurement": "GI50", "setting": "786-0", "result": "13.7 µM (inactive)"},
      {"measurement": "GI50", "setting": "NCI/ADR-RES", "result": "22.2 µM (inactive)"},
      {"measurement": "GI50", "setting": "Hs-578T", "result": "18.7 µM (inactive)"},
      {"measurement": "GI50", "setting": "ACHN", "result": "14.3 µM (inactive)"},
      {"measurement": "GI50", "setting": "KM12", "result": "25.2 µM (inactive)"},
      {"measurement": "GI50", "setting": "MOLT-4", "result": "0.426 µM (active)"},
      {"measurement": "GI50", "setting": "SN12C", "result": "11.6 µM (inactive)"},
      {"measurement": "GI50", "setting": "SK-MEL-2", "result": "22.6 µM (inactive)"},
      {"measurement": "GI50", "setting": "CAKI-1", "result": "29.1 µM (inactive)"},
      {"measurement": "GI50", "setting": "COLO 205", "result": "30.4 µM (inactive)"},
      {"measurement": "GI50", "setting": "SK-MEL-28", "result": "21.8 µM (inactive)"},
      {"measurement": "GI50", "setting": "OVCAR-8", "result": "2.72 µM (inactive)"},
      {"measurement": "GI50", "setting": "A549", "result": "21.4 µM (inactive)"},
      {"measurement": "GI50", "setting": "HCT-15", "result": 11, "unit": "µM"},
      {"measurement": "GI50", "setting": "MCF7", "result": "26.7 µM (inactive)"},
      {"measurement": "GI50", "setting": "RXF 393", "result": "49.2 µM (inactive)"}
    ]},
    {"compound": "O=C1Nc2cc([N+](=O)[O-])ccc2C(=O)N2CCC[C@@H]12", "values": [
      {"measurement": "GI50", "setting": "A498", "result": "> 100 µM (inactive)"},
      {"measurement": "GI50", "setting": "HOP-92", "result": "> 100 µM (inactive)"},
      {"measurement": "GI50", "setting": "DU-145", "result": "> 100 µM (inactive)"},
      {"measurement": "GI50", "setting": "786-0", "result": "> 100 µM (inactive)"},
      {"measurement": "GI50", "setting": "NCI/ADR-RES", "result": "> 100 µM (inactive)"},
      {"measurement": "GI50", "setting": "Hs-578T", "result": "> 100 µM (inactive)"},
      {"measurement": "GI50", "setting": "ACHN", "result": "> 100 µM (inactive)"},
      {"measurement": "GI50", "setting": "KM12", "result": "> 100 µM (inactive)"},
      {"measurement": "GI50", "setting": "MOLT-4", "result": "> 100 µM (inactive)"},
      {"measurement": "GI50", "setting": "SN12C", "result": "> 100 µM (inactive)"},
      {"measurement": "GI50", "setting": "SK-MEL-2", "result": "> 100 µM (inactive)"},
      {"measurement": "GI50", "setting": "CAKI-1", "result": "> 100 µM (inactive)"},
      {"measurement": "GI50", "setting": "COLO 205", "result": "> 100 µM (inactive)"},
      {"measurement": "GI50", "setting": "SK-MEL-28", "result": "> 100 µM (inactive)"},
      {"measurement": "GI50", "setting": "OVCAR-8", "result": "> 100 µM (inactive)"},
      {"measurement": "GI50", "setting": "A549", "result": "> 100 µM (inactive)"},
      {"measurement": "GI50", "setting": "HCT-15", "result": "> 100", "unit": "µM"},
      {"measurement": "GI50", "setting": "MCF7", "result": "> 100 µM (inactive)"},
      {"measurement": "GI50", "setting": "RXF 393", "result": "> 100 µM (inactive)"}
    ]},
    {"compound": "O=c1oc2ccccc2c(O)c1C(C/C(CCN1CCCC1)=N/O)c1ccccc1", "note": "(centres undefined)", "values": [
      {"measurement": "GI50", "setting": "A498", "result": "> 100 µM (inactive)"},
      {"measurement": "GI50", "setting": "Malme-3M", "result": "> 100 µM (inactive)"},
      {"measurement": "GI50", "setting": "HOP-92", "result": "56.4 µM (inactive)"},
      {"measurement": "GI50", "setting": "DU-145", "result": "> 100 µM (inactive)"},
      {"measurement": "GI50", "setting": "786-0", "result": "> 100 µM (inactive)"},
      {"measurement": "GI50", "setting": "NCI/ADR-RES", "result": "> 100 µM (inactive)"},
      {"measurement": "GI50", "setting": "Hs-578T", "result": "> 100 µM (inactive)"},
      {"measurement": "GI50", "setting": "ACHN", "result": "> 100 µM (inactive)"},
      {"measurement": "GI50", "setting": "KM12", "result": "> 100 µM (inactive)"},
      {"measurement": "GI50", "setting": "MOLT-4", "result": "> 48 µM (inactive)"},
      {"measurement": "GI50", "setting": "SN12C", "result": "> 100 µM (inactive)"},
      {"measurement": "GI50", "setting": "SK-MEL-2", "result": "> 100 µM (inactive)"},
      {"measurement": "GI50", "setting": "CAKI-1", "result": "> 100 µM (inactive)"},
      {"measurement": "GI50", "setting": "COLO 205", "result": "> 100 µM (inactive)"},
      {"measurement": "GI50", "setting": "SK-MEL-28", "result": "> 100 µM (inactive)"},
      {"measurement": "GI50", "setting": "OVCAR-8", "result": "> 100 µM (inactive)"},
      {"measurement": "GI50", "setting": "A549", "result": "> 100 µM (inactive)"},
      {"measurement": "GI50", "setting": "HCT-15", "result": "> 100", "unit": "µM"},
      {"measurement": "GI50", "setting": "MCF7", "result": "> 100 µM (inactive)"}
    ]},
    {"compound": "CCc1nc(N)nc(N)c1-c1ccc2nnn(O)c2c1", "values": [
      {"measurement": "GI50", "setting": "A498", "result": "> 100 µM (inactive)"},
      {"measurement": "GI50", "setting": "HOP-92", "result": "> 100 µM (inactive)"},
      {"measurement": "GI50", "setting": "DU-145", "result": "> 100 µM (inactive)"},
      {"measurement": "GI50", "setting": "786-0", "result": "> 100 µM (inactive)"},
      {"measurement": "GI50", "setting": "NCI/ADR-RES", "result": "> 100 µM (inactive)"},
      {"measurement": "GI50", "setting": "Hs-578T", "result": "> 100 µM (inactive)"},
      {"measurement": "GI50", "setting": "ACHN", "result": "> 100 µM (inactive)"},
      {"measurement": "GI50", "setting": "KM12", "result": "> 100 µM (inactive)"},
      {"measurement": "GI50", "setting": "MOLT-4", "result": "> 100 µM (inactive)"},
      {"measurement": "GI50", "setting": "SN12C", "result": "> 100 µM (inactive)"},
      {"measurement": "GI50", "setting": "SK-MEL-2", "result": "> 100 µM (inactive)"},
      {"measurement": "GI50", "setting": "CAKI-1", "result": "> 100 µM (inactive)"},
      {"measurement": "GI50", "setting": "COLO 205", "result": "> 100 µM (inactive)"},
      {"measurement": "GI50", "setting": "SK-MEL-28", "result": "> 100 µM (inactive)"},
      {"measurement": "GI50", "setting": "OVCAR-8", "result": "> 100 µM (inactive)"},
      {"measurement": "GI50", "setting": "A549", "result": "> 73.6 µM (inactive)"},
      {"measurement": "GI50", "setting": "HCT-15", "result": "> 100", "unit": "µM"},
      {"measurement": "GI50", "setting": "MCF7", "result": "> 100 µM (inactive)"},
      {"measurement": "GI50", "setting": "RXF 393", "result": "> 100 µM (inactive)"}
    ]},
    {"compound": "O=C(Nc1cc(Cl)c(I)c(Cl)c1)C(F)(F)F", "values": [
      {"measurement": "GI50", "setting": "A498", "result": "22.9 µM (inactive)"},
      {"measurement": "GI50", "setting": "Malme-3M", "result": "> 10 µM (inactive)"},
      {"measurement": "GI50", "setting": "HOP-92", "result": "20.3 µM (inactive)"},
      {"measurement": "GI50", "setting": "DU-145", "result": "42 µM (inactive)"},
      {"measurement": "GI50", "setting": "786-0", "result": "29 µM (inactive)"},
      {"measurement": "GI50", "setting": "NCI/ADR-RES", "result": "34.8 µM (inactive)"},
      {"measurement": "GI50", "setting": "Hs-578T", "result": "22.4 µM (inactive)"},
      {"measurement": "GI50", "setting": "ACHN", "result": "30.3 µM (inactive)"},
      {"measurement": "GI50", "setting": "KM12", "result": "27.5 µM (inactive)"},
      {"measurement": "GI50", "setting": "MOLT-4", "result": "26.5 µM (inactive)"},
      {"measurement": "GI50", "setting": "SN12C", "result": "35.5 µM (inactive)"},
      {"measurement": "GI50", "setting": "CAKI-1", "result": "19.9 µM (inactive)"},
      {"measurement": "GI50", "setting": "COLO 205", "result": "21.5 µM (inactive)"},
      {"measurement": "GI50", "setting": "SK-MEL-28", "result": "25.2 µM (inactive)"},
      {"measurement": "GI50", "setting": "OVCAR-8", "result": "20.1 µM (inactive)"},
      {"measurement": "GI50", "setting": "HCT-15", "result": 18, "unit": "µM"},
      {"measurement": "GI50", "setting": "MCF7", "result": "38.4 µM (inactive)"},
      {"measurement": "GI50", "setting": "RXF 393", "result": "16.7 µM (inactive)"}
    ]}
  ]
}
